We go through two molecules from ChEMBL document CHEMBL1817598, “Design, synthesis and biological evaluation of a simplified fluorescently labeled discodermolide as a molecular probe to study the binding of discodermolide to tubulin” (Bioorg Med Chem, 2011).

Assay [1] is described as follows: Effect on bovine brain tubulin assembly by spectrophotometry. Further details: species or system Bos taurus.
Assay [2] in a line: Binding affinity to microtubule by spectrofluorometry.
Assay [3] deals with A2780. The experiment in a line: Cytotoxicity against human A2780 cells after 2 days by Alamar blue assay. The class given is functional, cell-based. Conditions: A2780, 48 h.
Assay [4] relates to A2780. In words: Ratio of compound IC50 to Paclitaxel IC50 for human A2780 cells. The assay is classed as functional.

For orientation: EC50 means the concentration that produces a half-maximal response. What is called Kd is a measure of binding affinity in units of concentration. A higher Kd goes with weaker binding. As for `CC(=O)O[C@H]1C(=O)[C@@]2(C)[C@H]([C@H](OC(=O)c3ccccc3)[C@]3(O)C[C@H](OC(=O)[C@H](O)[C@@H](NC(=O)c4ccccc4)c4ccccc4)C(C)=C1C3(C)C)[C@]1(OC(C)=O)CO[C@@H]1C[C@@H]2O` [PACLITAXEL], in assay [1], the EC50 worked out at 490 nM. Moreover, the Kd in assay [2] was 0.015 µM.
By IC50 is commonly meant the concentration that gives 50% inhibition. A lower IC50 goes with greater potency in that assay. With `CCCC[C@H](C)[C@H](OC(N)=O)[C@@H](C)[C@H](O)[C@@H](C)C/C(C)=C\[C@H](C)[C@@H](O)[C@@H](C)/C=C\[C@@H](O)CCOC(=O)c1cccc(N(C)C)c1`, 5.4 µM corresponded to half-maximal inhibition in the assay on A2780 [3] (IC50). The molecule further gave an EC50 in assay [1] of 5200 nM. The molecule further came in with a Kd in assay [2] of 24 µM. The Ratio IC50 in the assay with A2780 [4] is 386.
